Tests used:
TLR4 = TLR4 (Homo sapiens, UniProt O00206); assay: TLR4 inhibitory and activating activity in THP-1 cells at low and high concentrations; format: cell-based; design: endogenous in cells; host or cells: THP-1 (human monocytic) cells
[1] = test system: THP-1 (human monocytic) cells; assay: Cytokine response (IL-1β, TNF-α, IL-10) of THP-1 cells treated with compounds; format: cell-based; conditions: 100-200 µM
Procedure: When THP-1 (human monocytic) cells were treated with 100-200 µM of compounds 8, 14, 17, 23, 29, and 32, they produced an increased IL-1β and TNF-α response, decreased anti-inflammatory cytokine IL-10 (FIG. 4).

TLR2 = target: T1, TLR2 (Homo sapiens, UniProt O60603); assay: TLR2 activity in PMA-stimulated THP-1 monocyte cells, ELISA of cell lysate; format: cell-based; conditions: THP-1 cells
T1 construct: endogenous in cells; host or cells: THP-1 monocyte cells stimulated with PMA
Procedure: THP-1 monocyte cells (1×10^5) were stimulated with 200nM of PMA for 48h and treated with different concentrations of test compounds. The TLR2 activity was measured after 24 h from the cell lysate using ELISA.

[2] = test system: normal lung epithelial cells (AT-1); format: cell-based, human; conditions: 1 mM and 2 mM, 48h, trypan blue
Procedure: The cells were treated with compounds and incubated for 48h.

[3] = test system: VEGF induced tube formation in HUVECs; assay: Anti-angiogenic activity, Tube Formation kit, VEGF induced; format: cell-based, human; conditions: VEGF 100ng/mL
Procedure: Selected TLR2/4 antagonist compounds 2, 6, 7, 8, 14, 17 and 32 were evaluated for anti-angiogenic activity using the Tube Formation kit (Cat#3470-096-K). VEGF (100ng/mL) was used as positive control. These compounds have potential applications in diseases associated with pathological angiogenesis such as solid tumor, […], diabetic retinopathy as well as AMD.

[4] = test system: hyperoxia induced BPD in mouse pups; assay: Hyperoxia-exposed BPD mouse model (newborn pups); format: in vivo
Description: Neonatal mice and humans undergo similar stages of lung development but differ with respect to the duration of each stage and its temporal relationship to gestational age. The lungs of the mouse born at term are in the saccular stage and are surfactant sufficient; this can be considered somewhat akin to a human preterm neonate in the same stage of lung development that has been exposed to a full complement of antenatal steroids (which is known to enhance surfactant production). In terms of mimicking the human condition, the most successful hyperoxia models are those that limit exposure to hyperoxia to the saccular stage of pulmonary development. The mouse BPD model involves exposing newborn mice (postnatal day 1 or PN1) to 100% oxygen till PN4 followed by recovery in room air (RA) for another 10 days.
After the recovery period, their lungs were harvested and processed for quantitative PCR, western blotting, histopathology and ELISA.
After the recovery period, their lungs were harvested and processed for quantitative PCR, western blotting and histopathology and ELISA.
BPD is characterized by large simplified alveoli, inflammation, increased cell death, decreased cell proliferation, dysmorphic capillary configuration, and variable interstitial cellularity and/or fibroproliferation. […] This is determined by measuring the alveolar chord length, septal thickness and radial alveolar count (RAC). In BPD, the alveolar area increases which is characterized by increase in the diameter of the alveolar sacs, the septa become thickened (thus interfering in gaseous exchange) and the RAC, a parameter used to assess the complexity of terminal respiratory unit by pulmonologists, decreases as a result of arrested lung development.

HUVECs = assay: Cytotoxicity in HUVECs, MTT cell proliferation kit; format: cell-based, human; conditions: 100 µM, 24h
Procedure: Selected TLR2/4 antagonist compounds 2, 6, 7, 8, 14, 17 and 32 were evaluated for cytotoxicity in HUVECs at 100 µM concentration. The cells were treated with compounds and incubated for 24h. Cell viability was assessed using MTT cell proliferation kit (Promega). All the compounds were not toxic to HUVECs (FIG. 15).

hPBMC = assay: Cytotoxicity in hPBMC, MTT cell proliferation kit; format: cell-based, human; conditions: 0.1, 1.0, 10, 100 and 1000 µM, 24h
Procedure: The cells were treated with compounds and incubated for 24h. Cell viability was assessed using MTT cell proliferation kit (Promega).

[5] = test system: human peripheral blood monocytes; assay: IL-10 production in human peripheral blood monocytes; format: cell-based; conditions: after 48 h
[6] = Concentration 75-100 µM, THP-1 cells

T1 sequence (O60603 21-784): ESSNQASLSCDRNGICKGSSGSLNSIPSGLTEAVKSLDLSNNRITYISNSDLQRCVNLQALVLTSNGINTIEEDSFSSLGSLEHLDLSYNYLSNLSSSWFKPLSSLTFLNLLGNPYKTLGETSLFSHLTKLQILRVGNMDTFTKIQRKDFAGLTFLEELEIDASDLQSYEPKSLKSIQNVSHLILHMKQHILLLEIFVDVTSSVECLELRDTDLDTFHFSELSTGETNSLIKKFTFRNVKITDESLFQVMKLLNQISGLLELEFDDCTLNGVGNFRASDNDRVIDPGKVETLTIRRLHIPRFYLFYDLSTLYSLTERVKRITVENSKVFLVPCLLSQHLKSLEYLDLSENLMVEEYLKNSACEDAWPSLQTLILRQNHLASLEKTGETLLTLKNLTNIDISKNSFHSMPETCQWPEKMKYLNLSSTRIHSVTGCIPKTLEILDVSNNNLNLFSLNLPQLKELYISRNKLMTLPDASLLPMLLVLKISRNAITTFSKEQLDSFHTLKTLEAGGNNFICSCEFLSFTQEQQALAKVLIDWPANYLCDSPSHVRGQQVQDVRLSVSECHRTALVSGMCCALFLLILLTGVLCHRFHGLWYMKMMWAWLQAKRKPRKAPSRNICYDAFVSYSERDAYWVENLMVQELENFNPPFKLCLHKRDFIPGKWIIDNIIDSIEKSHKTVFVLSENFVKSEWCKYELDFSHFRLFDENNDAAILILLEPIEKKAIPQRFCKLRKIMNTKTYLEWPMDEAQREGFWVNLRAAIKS
Sequence of TLR4 (O00206 24-839): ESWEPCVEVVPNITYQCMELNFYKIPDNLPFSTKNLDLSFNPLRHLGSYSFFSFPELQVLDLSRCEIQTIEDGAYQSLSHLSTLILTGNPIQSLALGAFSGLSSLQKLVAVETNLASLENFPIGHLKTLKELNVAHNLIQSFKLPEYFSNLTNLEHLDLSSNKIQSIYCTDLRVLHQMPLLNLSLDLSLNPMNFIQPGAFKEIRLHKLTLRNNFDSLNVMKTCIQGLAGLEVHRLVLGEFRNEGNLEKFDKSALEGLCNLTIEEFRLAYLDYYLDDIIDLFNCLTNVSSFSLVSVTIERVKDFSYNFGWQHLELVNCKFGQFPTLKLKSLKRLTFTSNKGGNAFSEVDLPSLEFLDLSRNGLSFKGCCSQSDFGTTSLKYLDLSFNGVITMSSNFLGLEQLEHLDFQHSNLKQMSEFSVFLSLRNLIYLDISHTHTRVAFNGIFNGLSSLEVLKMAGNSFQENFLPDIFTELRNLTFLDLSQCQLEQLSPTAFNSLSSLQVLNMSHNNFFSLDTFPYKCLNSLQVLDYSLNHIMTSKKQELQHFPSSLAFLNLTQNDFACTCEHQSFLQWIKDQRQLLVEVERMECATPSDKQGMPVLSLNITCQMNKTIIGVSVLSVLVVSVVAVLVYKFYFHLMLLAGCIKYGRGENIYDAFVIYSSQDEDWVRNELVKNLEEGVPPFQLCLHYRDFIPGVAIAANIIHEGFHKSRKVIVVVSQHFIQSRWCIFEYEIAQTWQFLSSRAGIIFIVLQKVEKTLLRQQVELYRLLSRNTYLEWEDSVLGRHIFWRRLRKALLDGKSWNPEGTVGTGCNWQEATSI
Sequence of TLR4 (Q9Y6Y9 17-160 partner limits assumed): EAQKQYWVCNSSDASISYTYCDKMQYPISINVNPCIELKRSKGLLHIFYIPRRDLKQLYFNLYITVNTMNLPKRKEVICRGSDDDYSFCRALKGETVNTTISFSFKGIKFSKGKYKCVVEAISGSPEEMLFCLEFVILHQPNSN

TLR2/4 antagonist activity (TLR4; summary in words, as shown in Table-1 (FIG. 1), TLR2 and TLR4) | Compound | % activation over control TLR4 (TLR4; [6]) | IL-1β response [1] | TNF-α response [1] | anti-inflammatory cytokine IL-10 [1] | % activation over control TLR2 (TLR2; Concentration 1-10 µM) | % activation over control TLR2 (TLR2; Concentration 75-100 µM) | cytotoxicity in normal lung epithelial cells (AT-1) [2] | VEGF induced tube formation [3] | % inhibition over control TLR4 (TLR4; Concentration 1-10 µM, THP-1 cells) | % inhibition over control TLR4 (TLR4; [6]) | TLR4 modulatory activity (TLR4; summary in words) | TLR4 inhibition in vivo ([4]; neonatal pups with BPD) | lung architecture ([4]; saline (IV) and nanosuspension (IN) formulation) | cytotoxicity in HUVECs (cell viability) (HUVECs) | cytotoxicity in hPBMC (cell viability) (hPBMC) | IL-10 production ([5]; 0.1-1.0 µM) | IL-10 production ([5]; 10-100 µM) | % inhibition over control TLR2 (TLR2; Concentration 1-10 µM) | % inhibition over control TLR2 (TLR2; Concentration 75-100 µM)
– | CC(=O)NC1[C@H](Oc2ccc3c(C)cc(=O)oc3c2)O[C@H](CO)[C@@H](O)[C@@H]1O (single isomer, unassigned) [Compound 29] | + (+ means that the % of inhibition or activation is in the range of 15-25%) | increased | increased | decreased | ++ (++ means that the % of inhibition or activation is in the range of 25-75%) | + (+ means that the % of inhibition or activation is in the range of 15-25%) | not toxic | – | – | – | – | – | – | – | – | – | – | – | –
potent TLR2/4 antagonists | CC(=O)NC1[C@H](Oc2ccc(B3OC(C)(C)C(C)(C)O3)cc2)O[C@H](CO)[C@@H](O)[C@@H]1O (single isomer, unassigned) [Compound 32, p-Pinacoloneboronatephenyl 2-acetamido-2-deoxy-β-D-glucopyranoside] | – | increased | increased | decreased | – | – | – | significantly decreased | +++ (+++ means that the % of inhibition or activation is in the range of 75-95%) | +++ (+++ means that the % of inhibition or activation is in the range of 75-95%) | concentration dependent TLR4 modulatory activity | inhibit | restored | not toxic | not toxic | increase | decrease | +++ (+++ means that the % of inhibition or activation is in the range of 75-95%) | + (+ means that the % of inhibition or activation is in the range of 15-25%)
– | CC(=O)O[C@H]1C(=O)[C@@]2(C)[C@H]([C@H](OC(=O)c3ccccc3)[C@]3(O)C[C@H](OC(=O)[C@H](O)[C@@H](NC(=O)c4ccccc4)c4ccccc4)C(C)=C1C3(C)C)[C@]1(OC(C)=O)CO[C@@H]1C[C@@H]2O [Taxol, reference compound] | – | – | – | – | – | – | toxic | – | – | – | – | – | – | – | – | – | – | – | –
